# System: NEMO oligomerization (CFP-NEMO / YFP-NEMO)
# Assay: FRET between CFP-NEMO and YFP-NEMO in lysates of doubly transfected Nemo-/- MEF cells
# Format: cell-based, murine
# Conditions: pECFP-Nemo and pEYFP-Nemo doubly transfected Nemo-/- MEF cells; 30 min incubation with IL-1β (10 ng/ml); excitation 433 nm
# Description: Rat-1, M319-5b (see supplementary data), 5R fibroblast and wild type, Ikkα^−/−Ikkβ^−/− and Nemo^−/− MEF cells were grown in Dulbecco's modified Eagle's medium supplemented with 10% fetal bovine serum. For 5R cells, 20% 5R conditioned medium was added to fresh culture medium. Transfections using Fugene 6 (Roche) were performed according to the manufacturer protocol using, per well of a 6 well-plate, 2 μg of pECFP-Nemo or pEYFP-Nemo plasmid (single transfection) or 1 μg each (double transfection). For plasmid obtaining, see supplementary data. In NF-κB complementation assays 100 ng of pEF1-lacZ (marker for transfection efficiency) and Igκ-luciferase plasmids were added to the transfection mix. Cell fluorescence was controlled with an Axiovert 200 (Zeiss) inverted microscope one day after transfection.
# Cells transfected with the lacZ and the Igκ-luciferase plasmids were trypsinated, pelleted and resuspended in fresh culture medium. Cell suspension was stimulated by IL-1β (BD, Biosciences, 10 ng/ml) or TNFα (BD Biosciences, 20 ng/ml) for 30 min at 37° C. […] Kinase activity in cytosolic extracts or glycerol gradient fractions was detected as described by Yamaoka, S., Courtois, G., Bessia, C., Whiteside, S. T., Weil, R., Agou, F., Kirk, H. E., Kay, R. J. and Israel, A. (1998) Complementation cloning of NEMO, a component of the IkappaB kinase (IKK) complex essential for NF-kappaB activation. […]
substance,measurement,value
IL-1β: pro inflammatory cytokine (BD Biosciences) used as NF-κB pathway activating stimulus,FRET transfer efficiency between CFP and YFP,21.7%

# Reference: patent US7842462B2, “Identification of substances that inhibit NEMO oligomerization” (Institut Pasteur, priority 2006, dated 2010)
